Test results from patent US11427548B2 (Arvinas Operations, Inc., priority 2015, dated 2022).
Read-outs that look alike come from different tables or passages of the source.

Biological target: T1, Androgen Receptor (Homo sapiens, UniProt P10275)
T1 construct: endogenous in cells; host or cells: VCaP cells
T1 sequence (P10275 1-920): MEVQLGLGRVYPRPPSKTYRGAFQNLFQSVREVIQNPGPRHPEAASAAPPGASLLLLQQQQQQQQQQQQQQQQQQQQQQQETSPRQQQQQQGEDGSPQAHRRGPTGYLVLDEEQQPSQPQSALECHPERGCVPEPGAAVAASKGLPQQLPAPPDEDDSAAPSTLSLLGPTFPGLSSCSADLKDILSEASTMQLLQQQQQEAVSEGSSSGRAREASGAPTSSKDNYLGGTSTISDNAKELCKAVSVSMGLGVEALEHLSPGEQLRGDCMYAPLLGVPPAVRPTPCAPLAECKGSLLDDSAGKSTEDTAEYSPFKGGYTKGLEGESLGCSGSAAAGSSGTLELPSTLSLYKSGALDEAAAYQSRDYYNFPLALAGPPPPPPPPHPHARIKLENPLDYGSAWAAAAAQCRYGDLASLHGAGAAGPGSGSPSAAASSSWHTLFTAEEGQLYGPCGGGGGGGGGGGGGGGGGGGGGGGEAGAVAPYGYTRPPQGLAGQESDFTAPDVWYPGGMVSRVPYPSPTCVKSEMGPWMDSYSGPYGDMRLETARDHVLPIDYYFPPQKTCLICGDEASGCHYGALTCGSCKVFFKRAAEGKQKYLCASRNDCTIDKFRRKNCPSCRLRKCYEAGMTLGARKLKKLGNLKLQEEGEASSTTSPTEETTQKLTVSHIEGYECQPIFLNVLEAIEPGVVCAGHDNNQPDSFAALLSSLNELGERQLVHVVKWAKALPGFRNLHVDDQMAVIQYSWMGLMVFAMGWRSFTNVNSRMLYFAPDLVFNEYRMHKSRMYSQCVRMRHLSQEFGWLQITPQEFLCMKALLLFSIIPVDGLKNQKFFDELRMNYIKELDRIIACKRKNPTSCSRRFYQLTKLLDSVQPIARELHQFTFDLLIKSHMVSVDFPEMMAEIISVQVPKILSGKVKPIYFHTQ
Test: Androgen Receptor ELISA assay (PathScan AR ELISA) in VCaP cells: AR degradation, Dmax and DC50
Assay type: cell-based
Summary of the method: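 VCaP cells in phenol red-free RPMI with 5% charcoal-stripped FBS were grown at least 3 days, then given compound as 7 half-log doses in 0.1% DMSO with 0.1 nM R1881 for 24 h. Lysates went into a sandwich AR ELISA with TMB read at 450 nm.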

[1] = read-out: VCaP DC50; concentration that caused 50% Androgen Receptor degradation, VCaP cells (Table 32)
[2] = VCaP, highest percentage of Androgen Receptor degradation observed, VCaP cells (Table 32); read-out: VCaP Dmax (%)
[3] = concentration that caused 50% Androgen Receptor degradation, VCaP cells (Table 32); read-out: VCaP DC50

`CC(C)(C)[C@H](NC(=O)COCCCCOc1ccc(-c2ccc(N3C(=S)N(c4ccc(C#N)c(Cl)c4F)C(=O)C3(C)C)cc2)cc1)C(=O)N1C[C@H](O)C[C@H]1C(=O)NCc1ccc(-c2cnco2)cc1` [Example 123, (2S,4R)-1-[(2S)-2-{2-[4-(4-{4-[3-(3-chloro-4-cyano-2-fluorophenyl)-5,5-dimethyl-4-oxo-2-sulfanylideneimidazolidin-1-yl]phenyl}phenoxy)butoxy]acetamido}-3,3-dimethylbutanoyl]-4-hydroxy-N-{[4-(1,3-oxazol-5-yl)phenyl]methyl}pyrrolidine-2-carboxamide] was tested, and the Dmax (VCaP, read-out: VCaP Dmax (%)) was greater than 71% and the DC50 [1] was less than 50 nM.
In the case of `CC(C)(C)[C@H](NC(=O)COCCCCOc1ccc(-c2ccc(N3C(=S)N(c4ccc(C#N)c(Cl)c4)C(=O)C34CCC4)cc2)cc1)C(=O)N1C[C@H](O)C[C@H]1C(=O)NCc1ccc(-c2cnco2)cc1` [Example 124, (2S,4R)-1-[(2S)-2-{2-[4-(4-{4-[7-(3-chloro-4-cyanophenyl)-8-oxo-6-sulfanylidene-5,7-diazaspiro[3.4]octan-5-yl]phenyl}phenoxy)butoxy]acetamido}-3,3-dimethylbutanoyl]-4-hydroxy-N-{[4-(1,3-oxazol-5-yl)phenyl]methyl}pyrrolidine-2-carboxamide], the Dmax (VCaP, read-out: VCaP Dmax (%)) is reported as 51 to 70% and the DC50 [1] is reported as less than 50 nM.
Molecule `Cc1cc(N2C(=O)C(C)(C)N(c3ccc(-c4ccc(OCCCCOCC(=O)N[C@H](C(=O)N5C[C@H](O)C[C@H]5C(=O)NCc5ccc(-c6cnco6)cc5)C(C)(C)C)cc4)cc3)C2=S)ccc1C#N` [Example 125, (2S,4R)-1-[(2S)-2-{2-[4-(4-{4-[3-(4-cyano-3-methylphenyl)-5,5-dimethyl-4-oxo-2-sulfanylideneimidazolidin-1-yl]phenyl}phenoxy)butoxy]acetamido}-3,3-dimethylbutanoyl]-4-hydroxy-N-{[4-(1,3-oxazol-5-yl)phenyl]methyl}pyrrolidine-2-carboxamide] has a Dmax [2] of 51 to 70% and a DC50 [3] of less than 50 nM.
`CC(C)(C)[C@H](NC(=O)COCCCCOc1ccc(-c2ccc(N3C(=S)N(c4ccc(C#N)c(F)c4)C(=O)C3(C)C)cc2)cc1)C(=O)N1C[C@H](O)C[C@H]1C(=O)NCc1ccc(-c2cnco2)cc1` [Example 126, (2S,4R)-1-[(2S)-2-{2-[4-(4-{4-[3-(4-cyano-3-fluorophenyl)-5,5-dimethyl-4-oxo-2-sulfanylideneimidazolidin-1-yl]phenyl}phen-oxy)butoxy]acetamido}-3,3-dimethylbutanoyl]-4-hydroxy-N-{[4-(1,3-oxazol-5-yl)phenyl]methyl}pyrrolidine-2-carboxamide] showed a Dmax [2] of 51 to 70% and a DC50 [3] of less than 50 nM.
Molecule `Cc1ncsc1-c1ccc(CNC(=O)[C@@H]2C[C@@H](O)CN2C(=O)[C@@H](NC(=O)COc2ccc(Oc3cccc(-c4ccc(N5C(=S)N(c6ccc(C#N)c(C(F)(F)F)c6)C(=O)C5(C)C)cc4)c3)cc2)C(C)(C)C)cc1` [Example 127, (2S,4R)-1-[(2S)-2-(2-{4-[3-(4-{3-[4-cyano-3-(trifluoromethyl)phenyl]-5,5-dimethyl-4-oxo-2-sulfanylideneimidazolidin-1-yl}phenyl)phen-oxy]phenoxy}acetamido)-3,3-dimethylbutanoyl]-4-hydroxy-N-{[4-(4-methyl-1,3-thiazol-5-yl)phenyl]methyl}pyrrolidine-2-carboxamide] has a Dmax (VCaP, read-out: VCaP Dmax (%)) greater than 71% and a DC50 [1] of less than 50 nM.
`Cc1ncsc1-c1ccc(CNC(=O)[C@@H]2C[C@@H](O)CN2C(=O)[C@@H](NC(=O)COCCCOCc2ccc(-c3ccc(N4C(=S)N(c5ccc(C#N)c(C(F)(F)F)c5)C(=O)C4(C)C)cc3)cc2)C(C)(C)C)cc1` [Example 128, (2S,4R)-1-[(2S)-2-[2-(3-{[4-(4-{3-[4-cyano-3-(trifluoromethyl)phenyl]-5,5-dimethyl-4-oxo-2-sulfanylideneimidazolidin-1-yl}phenyl)phen-yl]methoxy}propoxy)acetamido]-3,3-dimethylbutanoyl]-4-hydroxy-N-{[4-(4-methyl-1,3-thiazol-5-yl)phenyl]methyl}pyrrolidine-2-carboxamide] showed a Dmax (VCaP, read-out: VCaP Dmax (%)) of 51 to 70% and a DC50 [1] of less than 50 nM.
In the case of `Cc1ncsc1-c1ccc(CNC(=O)[C@@H]2C[C@@H](O)CN2C(=O)[C@@H](NC(=O)COCCC(O)COc2ccc(-c3ccc(N4C(=S)N(c5ccc(C#N)c(C(F)(F)F)c5)C(=O)C4(C)C)cc3)cc2)C(C)(C)C)cc1` (stereo partly drawn) [Example 129, (2S,4R)-1-[(2S)-2-(2-{4-[4-(4-{3-[4-cyano-3-(trifluoromethyl)phenyl]-5,5-dimethyl-4-oxo-2-sulfanylideneimidazolidin-1-yl}phenyl)phenoxy]-3-hydroxybutoxy}acetamido)-3,3-dimethylbutanoyl]-4-hydroxy-N-{[4-(4-methyl-1,3-thiazol-5-yl)phenyl]methyl}pyrrolidine-2-carboxamide], the Dmax (VCaP, read-out: VCaP Dmax (%)) is reported as 51 to 70% and the DC50 [1] is reported as less than 50 nM.
Work on `Cc1ncsc1-c1ccc(CNC(=O)[C@@H]2C[C@@H](O)CN2C(=O)[C@@H](NC(=O)COC[C@H](O)CCOc2ccc(-c3ccc(N4C(=S)N(c5ccc(C#N)c(C(F)(F)F)c5)C(=O)C4(C)C)cc3)cc2)C(C)(C)C)cc1` [Example 130, (2S,4R)-1-[(2S)-2-{2-[(2R)-4-[4-(4-{3-[4-cyano-3-(trifluoromethyl)phenyl]-5,5-dimethyl-4-oxo-2-sulfanylideneimidazolidin-1-yl}phenyl)phenoxy]-2-hydroxybutoxy]acetamido}-3,3-dimethylbutanoyl]-4-hydroxy-N-{[4-(4-methyl-1,3-thiazol-5-yl)phenyl]methyl}pyrrolidine-2-carboxamide] yielded a Dmax (VCaP, read-out: VCaP Dmax (%)) of 51 to 70% and a DC50 [1] of less than 50 nM.
With `C[C@H](NC(=O)[C@@H]1C[C@@H](O)CN1C(=O)[C@@H](NC(=O)COCCCCOc1ccc(-c2ccc(N3C(=S)N(c4ccc(C#N)c(Cl)c4)C(=O)C3(C)C)cc2)cc1)C(C)(C)C)c1ccc(-c2cnco2)cc1` [Example 132, (2S,4R)-1-[(2S)-2-{2-[4-(4-{4-[3-(3-chloro-4-cyanophenyl)-5,5-dimethyl-4-oxo-2-sulfanylideneimidazolidin-1-yl]phenyl}phenoxy)butoxy]acetamido}-3,3-dimethylbutanoyl]-4-hydroxy-N-[(1S)-1-[4-(1,3-oxazol-5-yl)phenyl]ethyl]pyrrolidine-2-carboxamide] the Dmax (VCaP, read-out: VCaP Dmax (%)) was greater than 71% and the DC50 [1] was less than 50 nM.
`CC(C)(C)[C@H](NC(=O)COCCCCOc1ccc(-c2ccc(N3C(=S)N(c4cc(Cl)c(C#N)cc4F)C(=O)C3(C)C)cc2)cc1)C(=O)N1C[C@H](O)C[C@H]1C(=O)NCc1ccc(-c2cnco2)cc1` [Example 133, (2S,4R)-1-[(2S)-2-{2-[4-(4-{4-[3-(5-chloro-4-cyano-2-fluorophenyl)-5,5-dimethyl-4-oxo-2-sulfanylideneimidazolidin-1-yl]phenyl}phenoxy)butoxy]acetamido}-3,3-dimethylbutanoyl]-4-hydroxy-N-{[4-(1,3-oxazol-5-yl)phenyl]methyl}pyrrolidine-2-carboxamide] was tested, and the Dmax (VCaP, read-out: VCaP Dmax (%)) was less than 25%.
`Cc1ncoc1-c1ccc(CNC(=O)[C@@H]2C[C@@H](O)CN2C(=O)[C@@H](NC(=O)COCCCC(=O)Nc2ccc(-c3ccc(N4C(=S)N(c5ccc(C#N)c(C(F)(F)F)c5)C(=O)C4(C)C)cc3)cc2)C(C)(C)C)cc1` [Example 135, (2S,4R)-1-[(2S)-2-[2-(3-{[4-(4-{3-[4-cyano-3-(trifluoromethyl)phenyl]-5,5-dimethyl-4-oxo-2-sulfanylideneimidazolidin-1-yl}phenyl)phenyl]carbamoyl}pro-poxy)acetamido]-3,3-dimethylbutanoyl]-4-hydroxy-N-{[4-(4-methyl-1,3-oxazol-5-yl)phenyl]methyl}pyrrolidine-2-carboxamide] gave a Dmax (VCaP, read-out: VCaP Dmax (%)) of 51 to 70% and a DC50 [1] of less than 50 nM.
`Cc1cc(OCCCCOCC(=O)N[C@H](C(=O)N2C[C@H](O)C[C@H]2C(=O)NCc2ccc(-c3scnc3C)cc2)C(C)(C)C)ccc1-c1ccc(N2C(=S)N(c3ccc(C#N)c(C(F)(F)F)c3)C(=O)C2(C)C)cc1` [Example 136, (2S,4R)-1-[(2S)-2-(2-{4-[4-(4-{3-[4-cyano-3-(trifluoromethyl)phenyl]-5,5-dimethyl-4-oxo-2-sulfanylideneimidazolidin-1-yl}phenyl)-3-methylphenoxy]butoxy}acetamido)-3,3-dimethylbutanoyl]-4-hydroxy-N-{[4-(4-methyl-1,3-thiazol-5-yl)phenyl]methyl}pyrrolidine-2-carboxamide] was tested, and the Dmax (VCaP, read-out: VCaP Dmax (%)) was greater than 71% and the DC50 [1] was less than 50 nM.
